Measurements from ChEMBL document CHEMBL1201862, “PubChem BioAssay data set” (2004).
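Briefly, cells in 96-well plates were exposed to five compound concentrations for 48 h, and endpoints were estimated by linear interpolation. Here, GI50 denotes the concentration required for 50% inhibition of growth.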 Calls of active or inactive are those of the source. No stated cut-off is given here; in the data, active = GI50 up to about 1.1 µM and inactive = higher.

How the values were obtained:
Assay in all cases: NCI-60 cell line screen, 48 h
OVCAR-4 = test system: OVCAR-4
SK-MEL-5 = test system: SK-MEL-5
HOP-92 = test system: HOP-92
Malme-3M = test system: Malme-3M
IGROV-1 = test system: IGROV-1
EKVX = test system: EKVX
MOLT-4 = test system: MOLT-4
SF-295 = test system: SF-295
SNB-19 = test system: SNB-19
OVCAR-8 = test system: OVCAR-8
HT-29 = test system: HT-29
HCC 2998 = test system: HCC 2998
NCI/ADR-RES = test system: NCI/ADR-RES
SF-539 = test system: SF-539
MDA-MB-231 = test system: MDA-MB-231
M14 = test system: M14
SK-OV-3 = test system: SK-OV-3
PC-3 = test system: PC-3
A549 = test system: A549
786-0 = test system: 786-0
SF-268 = test system: SF-268
OVCAR-5 = test system: OVCAR-5
TK-10 = test system: TK-10
KM12 = test system: KM12
RXF 393 = test system: RXF 393
COLO 205 = test system: COLO 205
HOP-62 = test system: HOP-62
NCI-H522 = test system: NCI-H522
MDA-N = test system: MDA-N
SNB-75 = test system: SNB-75
LOX IMVI = test system: LOX IMVI
SR = test system: SR
HL-60 = test system: HL-60
SK-MEL-28 = test system: SK-MEL-28
HCT-116 = test system: HCT-116
HCT-15 = test system: HCT-15
ACHN = test system: ACHN
NCI-H460 = test system: NCI-H460
A498 = test system: A498
UO-31 = test system: UO-31
NCI-H23 = test system: NCI-H23
NCI-H226 = test system: NCI-H226
SW-620 = test system: SW-620
SK-MEL-2 = test system: SK-MEL-2
CAKI-1 = test system: CAKI-1
K562 = test system: K562
UACC-257 = test system: UACC-257
CCRF-CEM = test system: CCRF-CEM
DU-145 = test system: DU-145
OVCAR-3 = test system: OVCAR-3
MDA-MB-435 = test system: MDA-MB-435
U-251 = test system: U-251
MCF7 = test system: MCF7
RPMI-8226 = test system: RPMI-8226
T47D = test system: T47D
SN12C = test system: SN12C
Hs-578T = test system: Hs-578T
UACC-62 = test system: UACC-62
BT-549 = test system: BT-549

Measured: GI50

CCOC(=O)Cc1csc(NC(NC(=O)OCC)(C(=O)OCC)C(F)(F)F)n1 (centres undefined)
inactive: OVCAR-4 > 100 µM | SK-MEL-5 > 100 µM | HOP-92 56.6 µM | Malme-3M > 100 µM | IGROV-1 > 100 µM | EKVX > 100 µM | MOLT-4 > 100 µM | SF-295 > 100 µM | SNB-19 > 100 µM | OVCAR-8 > 100 µM | HT-29 > 100 µM | HCC 2998 > 100 µM | NCI/ADR-RES > 100 µM | SF-539 > 100 µM | MDA-MB-231 > 100 µM | M14 > 100 µM | SK-OV-3 > 100 µM | PC-3 > 100 µM | A549 > 100 µM | 786-0 > 100 µM | SF-268 > 100 µM | OVCAR-5 > 100 µM | TK-10 > 100 µM | KM12 > 100 µM | RXF 393 > 100 µM | COLO 205 > 100 µM | HOP-62 > 100 µM | NCI-H522 16.9 µM | MDA-N > 100 µM | SNB-75 > 100 µM | LOX IMVI > 100 µM | SR > 100 µM | HL-60 > 100 µM | SK-MEL-28 > 100 µM | HCT-116 > 100 µM | ACHN > 100 µM | NCI-H460 > 100 µM | A498 > 100 µM | UO-31 > 100 µM | NCI-H23 > 100 µM | NCI-H226 > 100 µM | SW-620 > 100 µM | SK-MEL-2 > 100 µM | CAKI-1 > 100 µM | K562 > 100 µM | UACC-257 > 100 µM | CCRF-CEM > 100 µM | DU-145 > 100 µM | OVCAR-3 > 100 µM | MDA-MB-435 > 100 µM | U-251 > 100 µM | MCF7 > 100 µM | RPMI-8226 > 100 µM | T47D > 100 µM | SN12C > 100 µM | Hs-578T > 100 µM
> 100 µM: HCT-15

C/C=C/c1c(O)c(=O)c2c(OC)cc(OC)c3c4c(OC)cc(OC)c5c(=O)c(O)c(/C=C/C)c(c1c23)c54
inactive: OVCAR-4 13 µM | SK-MEL-5 5.73 µM | HOP-92 14.4 µM | Malme-3M 6.25 µM | IGROV-1 5.96 µM | EKVX 16.6 µM | MOLT-4 4.03 µM | SF-295 44.5 µM | SNB-19 1.95 µM | OVCAR-8 6.35 µM | HT-29 6.22 µM | HCC 2998 16.6 µM | NCI/ADR-RES 14.5 µM | SF-539 3.61 µM | MDA-MB-231 10.4 µM | M14 9.42 µM | UACC-62 6.3 µM | SK-OV-3 39.9 µM | PC-3 6.37 µM | A549 5.97 µM | 786-0 14.9 µM | SF-268 7.66 µM | OVCAR-5 20.5 µM | TK-10 > 10 µM | KM12 10.9 µM | COLO 205 3.7 µM | HOP-62 16.3 µM | NCI-H522 4.71 µM | MDA-N 6.87 µM | SNB-75 12.2 µM | LOX IMVI 8.55 µM | SR > 100 µM | SK-MEL-28 16.6 µM | HCT-116 4.84 µM | ACHN 2.86 µM | NCI-H460 9.48 µM | BT-549 3.1 µM | A498 32.6 µM | UO-31 1.64 µM | NCI-H23 7.59 µM | SW-620 6.55 µM | SK-MEL-2 10.2 µM | CAKI-1 6.14 µM | K562 3.4 µM | UACC-257 16.5 µM | CCRF-CEM 5.46 µM | DU-145 8.07 µM | OVCAR-3 3.99 µM | MDA-MB-435 5.82 µM | U-251 7.23 µM | MCF7 14.5 µM | RPMI-8226 6.92 µM | SN12C 16.5 µM
6.49 µM: HCT-15
active: NCI-H226 < 0.01 µM

Cc1nc2ccc(F)cc2c2c1CCN2c1ccccc1
inactive: OVCAR-4 23.7 µM | SK-MEL-5 12.9 µM | HOP-92 12.2 µM | Malme-3M 20.2 µM | IGROV-1 18.6 µM | EKVX 22.4 µM | MOLT-4 15.1 µM | SF-295 11.7 µM | SNB-19 32.8 µM | OVCAR-8 20.9 µM | HT-29 8.51 µM | HCC 2998 18.1 µM | NCI/ADR-RES 18.3 µM | SF-539 21 µM | UACC-62 12 µM | PC-3 19.1 µM | A549 22.6 µM | 786-0 23 µM | SF-268 23.3 µM | TK-10 22.9 µM | KM12 23.9 µM | RXF 393 15 µM | COLO 205 11.9 µM | HOP-62 32.9 µM | NCI-H522 17.8 µM | SNB-75 12.8 µM | LOX IMVI 13.8 µM | SR 16.7 µM | HL-60 7.43 µM | SK-MEL-28 16.2 µM | HCT-116 8.18 µM | ACHN 21.1 µM | NCI-H460 13.5 µM | BT-549 23.4 µM | A498 27.6 µM | UO-31 19 µM | NCI-H23 20 µM | NCI-H226 16.6 µM | SW-620 23.4 µM | K562 11.8 µM | UACC-257 18.2 µM | CCRF-CEM 21.5 µM | DU-145 31.4 µM | OVCAR-3 30.5 µM | MDA-MB-435 14.1 µM | U-251 26 µM | MCF7 28.1 µM | RPMI-8226 15.8 µM | T47D 23.7 µM | Hs-578T 17.9 µM
25.9 µM: HCT-15

CC(C)NC(=O)N(Nc1ccccc1)C(C)(C)C
inactive: OVCAR-4 > 100 µM | SK-MEL-5 > 100 µM | HOP-92 > 100 µM | Malme-3M > 100 µM | IGROV-1 > 100 µM | EKVX > 100 µM | MOLT-4 > 100 µM | SF-295 > 100 µM | SNB-19 > 100 µM | OVCAR-8 > 100 µM | HT-29 > 100 µM | HCC 2998 > 100 µM | NCI/ADR-RES > 100 µM | SF-539 > 100 µM | MDA-MB-231 > 100 µM | M14 > 100 µM | UACC-62 > 100 µM | SK-OV-3 > 100 µM | PC-3 > 100 µM | A549 > 100 µM | 786-0 > 100 µM | OVCAR-5 > 100 µM | TK-10 > 100 µM | KM12 > 100 µM | RXF 393 > 100 µM | COLO 205 > 100 µM | HOP-62 > 100 µM | MDA-N > 100 µM | SNB-75 73.8 µM | LOX IMVI > 100 µM | SR > 100 µM | HL-60 37.2 µM | SK-MEL-28 > 100 µM | HCT-116 > 100 µM | ACHN > 100 µM | NCI-H460 > 100 µM | BT-549 > 100 µM | A498 > 100 µM | UO-31 96.2 µM | NCI-H23 > 100 µM | NCI-H226 > 100 µM | SW-620 > 100 µM | SK-MEL-2 > 100 µM | CAKI-1 > 100 µM | K562 > 100 µM | UACC-257 > 100 µM | CCRF-CEM > 100 µM | OVCAR-3 > 100 µM | U-251 > 100 µM | MCF7 > 100 µM | SN12C > 100 µM | Hs-578T > 100 µM
> 100 µM: HCT-15

C[C@H]1CC(=O)C[C@@H]2CC[C@@H]3[C@H](CC[C@]4(C)C(OC(=O)c5cccc6c(=O)c7ccccc7[nH]c56)CC[C@@H]34)[C@]21C (some centres undefined)
inactive: OVCAR-4 26.1 µM | SK-MEL-5 16 µM | HOP-92 16 µM | Malme-3M 92.5 µM | IGROV-1 38.5 µM | EKVX 31.1 µM | MOLT-4 5.28 µM | SF-295 38.5 µM | SNB-19 > 100 µM | OVCAR-8 23.8 µM | HT-29 32.5 µM | HCC 2998 47 µM | NCI/ADR-RES 20.4 µM | SF-539 > 100 µM | MDA-MB-231 23.6 µM | M14 30.6 µM | UACC-62 21.6 µM | SK-OV-3 16.3 µM | PC-3 14.8 µM | A549 23.2 µM | 786-0 48 µM | SF-268 57.5 µM | OVCAR-5 > 100 µM | TK-10 64.7 µM | KM12 30.4 µM | RXF 393 39.2 µM | COLO 205 22 µM | HOP-62 36.6 µM | NCI-H522 18.7 µM | SNB-75 31.1 µM | LOX IMVI 31.2 µM | SR 4.8 µM | HL-60 14.3 µM | SK-MEL-28 38.2 µM | HCT-116 33.3 µM | ACHN 34.4 µM | NCI-H460 26.7 µM | BT-549 26.7 µM | A498 30.1 µM | UO-31 24.2 µM | NCI-H23 30.6 µM | NCI-H226 28.2 µM | SW-620 55.5 µM | SK-MEL-2 28.6 µM | CAKI-1 10 µM | K562 23.6 µM | UACC-257 32.6 µM | CCRF-CEM 23.8 µM | DU-145 54.3 µM | OVCAR-3 47.2 µM | MDA-MB-435 36.4 µM | U-251 33.1 µM | MCF7 62.5 µM | RPMI-8226 11.1 µM | T47D 32.7 µM | SN12C 46 µM | Hs-578T 46.8 µM
31.3 µM: HCT-15
